Laboratory results taken from paper PMC3382171 (PLoS ONE, 2012).

How the values were obtained:
Test in all cases: biochemical
Design in all cases: Invitrogen SelectScreen kinase panel, percent inhibition at 1 uM, ATP at Km
Settings in all cases: read-out: Invitrogen KSS %Inh at 1 µM
KIT T670I = KIT T670I (Homo sapiens, UniProt P10721, T670I)
Method: (§1) The METi and RAFi were screened against kinase panels (SelectScreen, Invitrogen; University of Dundee, Division of Signal Transduction Therapy, UK; Upstate Biotechnology/Millipore, Billerica, MA). In these selectivity assays the concentration of ATP was set to the Km value of ATP for each kinase tested to allow for a relative potency comparison between the various kinases. The compounds were tested at 1 µM final concentration. […] Supplementary file pone.0039653.s002.pdf: Figure S2 Kinase Selectivity Screen of RAFi. (A) Kinase selectivity screen (KSS) performed at University of Dundee (Division of Signal Transduction Therapy). Values in % inhibition of phosphorylation given 1 µM of RAFi compared to control. (B) KSS performed at Invitrogen (Selectscreen Service) compared to control. Values in % inhibition of phosphorylation given 1 µM of RAFi. (C) Cell based dose response kinase inhibition of indicated kinases by RAFi. (PDF) Click here for additional data file.

NTRK2 (TRKB) = NTRK2 (TRKB) (Homo sapiens, UniProt Q16620)
Method: as §1

SGKL (SGK3) = SGKL (SGK3) (Homo sapiens, UniProt Q96BR1)
Method: as §1

CAMK2A (CaMKII alpha) = CAMK2A (CaMKII alpha) (Homo sapiens, UniProt Q9UQM7)
Method: as §1

[1] = biological target: PIK3CA/PIK3R1 (p110 alpha/p85 alpha) (Homo sapiens, UniProt P42336)
Method: as §1

DYRK1A = DYRK1A (Homo sapiens, UniProt Q13627)
Method: as §1

KDR (VEGFR2) = KDR (VEGFR2) (Homo sapiens, UniProt P35968)
Method: as §1

CSNK1D (CK1 delta) = CSNK1D (CK1 delta) (Homo sapiens, UniProt P48730)
Method: as §1

STK22B (TSSK2) = STK22B (TSSK2) (Homo sapiens, UniProt Q96PF2)
Method: as §1

TYRO3 (RSE) = TYRO3 (RSE) (Homo sapiens, UniProt Q06418)
Method: as §1

MAPKAPK3 = MAPKAPK3 (Homo sapiens, UniProt Q16644)
Method: as §1

MAPK9 (JNK2) = MAPK9 (JNK2) (Homo sapiens, UniProt P45984)
Method: as §1

CSNK2A1 (CK2 alpha 1) = CSNK2A1 (CK2 alpha 1) (Homo sapiens, UniProt P68400)
Method: as §1

PLK3 = PLK3 (Homo sapiens, UniProt Q9H4B4)
Method: as §1

EGFR (ErbB1) = EGFR (ErbB1) (Homo sapiens, UniProt P00533)
Method: as §1

CSF1R (FMS) = CSF1R (FMS) (Homo sapiens, UniProt P07333)
Method: as §1

PKN1 (PRK1) = PKN1 (PRK1) (Homo sapiens, UniProt Q16512)
Method: as §1

INSR = INSR (Homo sapiens, UniProt P06213)
Method: as §1

PAK4 = PAK4 (Homo sapiens, UniProt O96013)
Method: as §1

SGK (SGK1) = SGK (SGK1) (Homo sapiens, UniProt O00141)
Method: as §1

MET M1250T = MET M1250T (Homo sapiens, UniProt P08581, M1250T)
Method: as §1

PTK6 (Brk) = PTK6 (Brk) (Homo sapiens, UniProt Q13882)
Method: as §1

STK22B (TSSK2), sequence (Q96PF2 whole entry): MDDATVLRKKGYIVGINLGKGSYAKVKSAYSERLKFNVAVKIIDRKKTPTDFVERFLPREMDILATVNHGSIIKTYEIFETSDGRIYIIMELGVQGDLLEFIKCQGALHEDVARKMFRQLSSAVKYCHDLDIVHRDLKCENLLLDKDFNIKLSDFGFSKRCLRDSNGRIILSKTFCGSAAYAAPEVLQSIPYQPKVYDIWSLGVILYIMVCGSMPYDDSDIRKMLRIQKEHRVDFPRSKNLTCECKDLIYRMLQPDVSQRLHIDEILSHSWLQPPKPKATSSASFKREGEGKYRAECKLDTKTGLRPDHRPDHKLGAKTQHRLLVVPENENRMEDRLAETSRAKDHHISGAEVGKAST
CSNK2A1 (CK2 alpha 1), sequence (P68400 whole entry): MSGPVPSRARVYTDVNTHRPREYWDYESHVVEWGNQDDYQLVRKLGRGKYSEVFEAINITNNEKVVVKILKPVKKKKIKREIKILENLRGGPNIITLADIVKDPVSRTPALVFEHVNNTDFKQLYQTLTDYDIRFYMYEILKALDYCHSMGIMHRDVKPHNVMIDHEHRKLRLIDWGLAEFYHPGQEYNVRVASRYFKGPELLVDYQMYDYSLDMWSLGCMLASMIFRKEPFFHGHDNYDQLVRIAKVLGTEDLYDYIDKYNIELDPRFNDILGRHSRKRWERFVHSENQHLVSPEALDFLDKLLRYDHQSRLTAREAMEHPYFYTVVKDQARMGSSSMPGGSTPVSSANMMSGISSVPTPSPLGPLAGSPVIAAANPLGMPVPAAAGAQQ
PLK3, sequence (Q9H4B4 whole entry): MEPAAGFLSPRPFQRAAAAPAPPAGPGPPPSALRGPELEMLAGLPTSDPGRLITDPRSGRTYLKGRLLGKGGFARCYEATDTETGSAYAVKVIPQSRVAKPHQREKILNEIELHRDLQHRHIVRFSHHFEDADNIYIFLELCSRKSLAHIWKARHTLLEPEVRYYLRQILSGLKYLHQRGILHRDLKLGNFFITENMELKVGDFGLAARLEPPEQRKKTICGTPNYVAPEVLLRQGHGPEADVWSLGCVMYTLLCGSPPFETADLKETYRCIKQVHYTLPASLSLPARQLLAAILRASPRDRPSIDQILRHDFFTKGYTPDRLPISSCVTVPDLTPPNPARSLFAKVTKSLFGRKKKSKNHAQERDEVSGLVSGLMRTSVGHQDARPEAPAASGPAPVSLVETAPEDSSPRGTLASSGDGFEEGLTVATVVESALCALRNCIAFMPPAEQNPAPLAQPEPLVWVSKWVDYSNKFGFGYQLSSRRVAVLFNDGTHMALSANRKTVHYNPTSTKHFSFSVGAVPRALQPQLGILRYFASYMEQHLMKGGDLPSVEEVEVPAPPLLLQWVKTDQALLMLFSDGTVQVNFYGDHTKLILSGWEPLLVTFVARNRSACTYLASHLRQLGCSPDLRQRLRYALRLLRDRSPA
CSF1R (FMS), sequence (P07333 whole entry): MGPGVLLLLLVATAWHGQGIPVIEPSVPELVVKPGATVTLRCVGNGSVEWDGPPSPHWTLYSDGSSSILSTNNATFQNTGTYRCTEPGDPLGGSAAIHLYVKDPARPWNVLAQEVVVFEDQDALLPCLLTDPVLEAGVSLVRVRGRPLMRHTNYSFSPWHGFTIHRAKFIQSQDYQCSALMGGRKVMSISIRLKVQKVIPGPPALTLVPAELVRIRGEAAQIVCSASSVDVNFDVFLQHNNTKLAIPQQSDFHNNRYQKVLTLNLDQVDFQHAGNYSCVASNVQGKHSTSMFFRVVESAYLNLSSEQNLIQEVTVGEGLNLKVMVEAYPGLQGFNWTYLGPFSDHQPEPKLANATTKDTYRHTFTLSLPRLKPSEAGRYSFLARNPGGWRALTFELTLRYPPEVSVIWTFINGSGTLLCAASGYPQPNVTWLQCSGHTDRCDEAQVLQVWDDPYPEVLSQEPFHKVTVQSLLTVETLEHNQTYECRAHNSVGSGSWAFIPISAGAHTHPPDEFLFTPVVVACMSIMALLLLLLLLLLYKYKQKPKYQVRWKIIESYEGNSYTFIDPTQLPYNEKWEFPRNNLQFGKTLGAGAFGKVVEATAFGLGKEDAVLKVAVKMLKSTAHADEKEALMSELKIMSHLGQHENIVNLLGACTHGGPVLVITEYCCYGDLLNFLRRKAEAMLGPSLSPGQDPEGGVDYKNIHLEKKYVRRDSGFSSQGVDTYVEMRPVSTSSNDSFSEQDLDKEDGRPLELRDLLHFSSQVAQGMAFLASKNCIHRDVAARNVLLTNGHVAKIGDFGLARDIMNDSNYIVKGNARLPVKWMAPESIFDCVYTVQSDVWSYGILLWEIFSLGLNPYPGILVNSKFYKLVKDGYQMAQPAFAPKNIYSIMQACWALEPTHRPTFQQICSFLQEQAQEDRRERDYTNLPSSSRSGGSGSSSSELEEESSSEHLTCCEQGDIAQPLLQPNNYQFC
PIK3CA/PIK3R1 (p110 alpha/p85 alpha), sequence (P42336 whole entry): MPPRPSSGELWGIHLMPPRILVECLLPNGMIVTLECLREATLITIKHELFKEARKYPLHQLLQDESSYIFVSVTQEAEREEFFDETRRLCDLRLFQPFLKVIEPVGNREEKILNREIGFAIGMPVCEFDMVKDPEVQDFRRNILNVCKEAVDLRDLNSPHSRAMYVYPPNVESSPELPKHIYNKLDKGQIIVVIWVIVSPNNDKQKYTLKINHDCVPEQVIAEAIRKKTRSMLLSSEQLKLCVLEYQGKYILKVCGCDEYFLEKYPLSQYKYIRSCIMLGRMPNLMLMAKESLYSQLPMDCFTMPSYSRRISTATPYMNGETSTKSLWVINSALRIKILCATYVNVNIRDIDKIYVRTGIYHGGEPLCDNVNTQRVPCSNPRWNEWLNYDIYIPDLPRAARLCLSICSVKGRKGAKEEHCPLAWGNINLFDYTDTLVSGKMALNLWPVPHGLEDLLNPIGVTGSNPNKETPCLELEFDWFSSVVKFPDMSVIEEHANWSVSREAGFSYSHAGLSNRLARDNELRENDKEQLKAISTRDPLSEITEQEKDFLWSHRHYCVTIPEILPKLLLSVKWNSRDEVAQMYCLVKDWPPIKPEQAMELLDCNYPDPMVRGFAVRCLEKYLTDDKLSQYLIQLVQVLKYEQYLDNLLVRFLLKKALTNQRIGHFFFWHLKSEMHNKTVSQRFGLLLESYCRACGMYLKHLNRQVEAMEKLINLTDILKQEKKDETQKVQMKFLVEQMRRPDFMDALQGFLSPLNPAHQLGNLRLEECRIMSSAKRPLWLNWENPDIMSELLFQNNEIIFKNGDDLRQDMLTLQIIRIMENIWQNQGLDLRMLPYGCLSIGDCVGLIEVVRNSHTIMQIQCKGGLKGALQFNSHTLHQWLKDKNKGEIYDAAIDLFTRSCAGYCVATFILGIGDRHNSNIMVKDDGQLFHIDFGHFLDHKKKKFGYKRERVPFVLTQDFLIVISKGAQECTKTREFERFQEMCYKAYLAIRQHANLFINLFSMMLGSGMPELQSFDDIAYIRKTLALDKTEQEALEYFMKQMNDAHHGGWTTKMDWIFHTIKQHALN
PIK3CA/PIK3R1 (p110 alpha/p85 alpha), sequence (P27986 whole entry partner): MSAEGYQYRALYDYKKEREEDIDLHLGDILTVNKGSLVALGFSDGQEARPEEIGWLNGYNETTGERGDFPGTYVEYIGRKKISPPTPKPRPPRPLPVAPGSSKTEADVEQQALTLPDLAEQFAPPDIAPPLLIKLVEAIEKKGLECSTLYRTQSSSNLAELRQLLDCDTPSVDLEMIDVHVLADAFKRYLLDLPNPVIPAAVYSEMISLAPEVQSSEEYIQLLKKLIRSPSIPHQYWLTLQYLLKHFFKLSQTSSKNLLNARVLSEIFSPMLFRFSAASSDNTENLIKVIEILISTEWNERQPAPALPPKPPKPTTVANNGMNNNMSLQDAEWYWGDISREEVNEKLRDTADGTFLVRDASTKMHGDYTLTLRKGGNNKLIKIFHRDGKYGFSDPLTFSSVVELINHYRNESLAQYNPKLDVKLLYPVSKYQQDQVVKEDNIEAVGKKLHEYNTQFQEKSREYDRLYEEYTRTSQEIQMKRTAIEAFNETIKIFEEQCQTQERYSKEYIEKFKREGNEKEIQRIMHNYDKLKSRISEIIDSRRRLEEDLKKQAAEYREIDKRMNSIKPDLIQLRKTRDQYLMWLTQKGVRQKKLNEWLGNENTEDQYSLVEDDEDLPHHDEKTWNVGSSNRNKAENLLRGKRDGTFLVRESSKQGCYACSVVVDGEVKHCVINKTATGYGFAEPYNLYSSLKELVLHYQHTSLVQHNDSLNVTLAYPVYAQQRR
MAPKAPK3, sequence (Q16644 whole entry): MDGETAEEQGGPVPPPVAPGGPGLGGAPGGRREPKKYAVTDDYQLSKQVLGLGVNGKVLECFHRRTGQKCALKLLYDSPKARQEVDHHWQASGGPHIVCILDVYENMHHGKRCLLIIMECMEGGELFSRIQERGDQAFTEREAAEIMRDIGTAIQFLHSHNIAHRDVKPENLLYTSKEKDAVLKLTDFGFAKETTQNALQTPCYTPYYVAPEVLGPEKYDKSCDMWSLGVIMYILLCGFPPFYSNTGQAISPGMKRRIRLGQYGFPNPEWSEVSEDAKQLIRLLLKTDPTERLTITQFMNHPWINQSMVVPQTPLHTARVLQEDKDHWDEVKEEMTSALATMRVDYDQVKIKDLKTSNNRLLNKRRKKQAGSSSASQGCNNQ
CAMK2A (CaMKII alpha), sequence (Q9UQM7 whole entry): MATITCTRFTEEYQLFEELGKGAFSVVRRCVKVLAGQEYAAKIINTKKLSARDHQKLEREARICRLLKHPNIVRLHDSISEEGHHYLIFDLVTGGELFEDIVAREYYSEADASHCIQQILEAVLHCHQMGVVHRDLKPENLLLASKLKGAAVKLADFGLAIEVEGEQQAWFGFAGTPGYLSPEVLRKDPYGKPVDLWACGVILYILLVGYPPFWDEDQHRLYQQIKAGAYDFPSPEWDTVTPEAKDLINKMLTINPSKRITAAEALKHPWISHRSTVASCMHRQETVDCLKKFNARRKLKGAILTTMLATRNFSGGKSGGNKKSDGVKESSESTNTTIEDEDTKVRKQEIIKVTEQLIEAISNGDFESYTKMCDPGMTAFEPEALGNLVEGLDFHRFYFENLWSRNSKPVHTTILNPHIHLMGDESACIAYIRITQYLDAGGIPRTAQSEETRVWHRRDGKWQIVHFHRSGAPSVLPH

N#CCCNc1nccc(-c2cn(CC(F)F)nc2-c2cnc3[nH]ccc3c2)n1 [RAFi, PF-04880594]
inhibition at 1 µM (KIT T670I): 36% | inhibition at 1 µM (NTRK2 (TRKB)): 23% | inhibition at 1 µM (SGKL (SGK3)): -1% | inhibition at 1 µM (CAMK2A (CaMKII alpha)): -1% | inhibition at 1 µM [1]: 35% | inhibition at 1 µM (DYRK1A): -12% | inhibition at 1 µM (KDR (VEGFR2)): 33% | inhibition at 1 µM (CSNK1D (CK1 delta)): 95% | inhibition at 1 µM (STK22B (TSSK2)): 2% | inhibition at 1 µM (TYRO3 (RSE)): 10% | inhibition at 1 µM (MAPKAPK3): 12% | inhibition at 1 µM (MAPK9 (JNK2)): 101% | inhibition at 1 µM (CSNK2A1 (CK2 alpha 1)): -1% | inhibition at 1 µM (PLK3): 4% | inhibition at 1 µM (EGFR (ErbB1)): 5% | inhibition at 1 µM (CSF1R (FMS)): 33% | inhibition at 1 µM (PKN1 (PRK1)): -10% | inhibition at 1 µM (INSR): -4% | inhibition at 1 µM (PAK4): 1% | inhibition at 1 µM (SGK (SGK1)): 7% | inhibition at 1 µM (MET M1250T): 7% | inhibition at 1 µM (PTK6 (Brk)): 5%
